Experimental data as given in US9540314B2, “N-cycloalkyl-N-[(cycloalkenylphenyl)methylene]-(thio) carboxamide derivatives” (BAYER INTELLECTUAL PROPERTY GMBH, priority 2012, dated 2017).

Columns and labels:
[1] = log P by HPLC on a reversed-phase column (C 18), EEC Directive 79/831 Annex V.A8; type: physicochemical; details: Table 1; HPLC C 18, 40° C., 0.1% aqueous formic acid and acetonitrile; several values = mixture of 2 or more isomers
Description: In table 1, the log P values were determined in accordance with EEC Directive 79/831 Annex V.A8 by HPLC (High Performance Liquid Chromatography) on a reversed-phase column (C 18), using the method described below:
Temperature: 40° C.; Mobile phases: 0.1% aqueous formic acid and acetonitrile; linear gradient from 10% acetonitrile to 90% acetonitrile.
Calibration was carried out using unbranched alkan-2-ones (comprising 3 to 16 carbon atoms) with known log P values (determination of the log P values by the retention times using linear interpolation between two successive alkanones). lambda-max-values were determined using UV-spectra from 200 nm to 400 nm and the peak values of the chromatographic signals.

[2] = system: Sphaerotheca fuliginea; assay: In vivo preventive test on Sphaerotheca fuliginea (powdery mildew on cucurbits); details: 500 ppm, gherkin plants, grading 12 days after contamination
Description: The active ingredients tested are prepared by homogenization in a mixture of acetone/tween/DMSO and then diluted with water to obtain the desired active material concentration.
Gherkin plants (“Vert petit de Paris” variety), sown in starter cups on a 50/50 peat soil-pozzolana substrate and grown at 24° C., are treated at the Z11 cotyledon stage by spraying with the active ingredient prepared as described above. Plants, used as controls, are treated with the mixture of acetone/tween/DMSO/water not containing the active material.
After 24 hours, the plants are contaminated by spraying the cotyledons with an aqueous suspension of Sphaerotheca fuliginea spores (100 000 spores per mL). The spores are collected from infected plants. The contaminated gherkin plants are incubated at about 20° C. and at 70-80% relative humidity.
(§1) Grading (% of efficacy) is carried out 12 days after the contamination, in comparison with the control plants.
Under these conditions, good (at least 70%) to total protection is observed at a dose of 500 ppm of active ingredient with the following compounds from table A: […]

[3] = system: Alternaria brassicae; assay: In vivo preventive test on Alternaria brassicae (leaf spot on radish); details: Table C1, 500 ppm, radish plants, grading 6 days after contamination
Description: (§2) The active ingredients tested are prepared by homogenization in a mixture of acetone/tween/DMSO, and then diluted with water to obtain the desired active material concentration.
Radish plants (“Pernod Clair” variety), sown in starter cups on a 50/50 peat soil pozzolana substrate and grown at 17° C., are treated at the cotyledon stage by spraying with the active ingredient prepared as described above. Plants, used as controls, are treated with the mixture of acetone/tween/DMSO/water not containing the active material.
After 24 hours, the plants are contaminated by spraying the cotyledons with an aqueous suspension of Alternaria brassicae spores (50 000 spores per mL). The spores are collected from a 15-day-old culture.
The contaminated radish plants are incubated at 20° C. and at 100% relative humidity.
Grading (% of efficacy) is carried out 6 days after the contamination, in comparison with the control plants.
Under these conditions, high (at least 80%) to excellent (at least 90%) protection is observed at a dose of 500 ppm of active ingredient with the following compounds from table C1: […]

[4] = system: Pyrenophora teres; assay: In vivo preventive test on Pyrenophora teres (barley); details: 500 ppm of active ingredient; barley plants, preventive spray; grading 14 days after contamination
Description: as §2
Barley plants (“Plaisant” variety), sown in starter cups on a 50/50 peat soil pozzolana substrate and grown at 22° C., are treated at the 1 leaf stage (10 cm height) by spraying with the active ingredient prepared as described above. Plants, used as controls, are treated with the mixture of acetone/tween/DMSO/water not containing the active material.
After 24 hours, the plants are contaminated by spraying the leaves with an aqueous suspension of Pyrenophora teres spores (12 000 spores per mL). The spores are collected from a 12-day-old culture.
The contaminated barley plants are incubated for 48 hours at 20° C. and at 100% relative humidity, and then for 12 days at 20° C. at 70-80% relative humidity.
Grading (% of efficacy) is carried out 14 days after the contamination, in comparison with the control plants.
Under these conditions, good (at least 70%) to total protection is observed at a dose of 500 ppm of active ingredient with the following compounds from table H1: […]

[5] = system: Puccinia recondita; assay: In vivo preventive test on Puccinia recondita (brown rust on wheat); details: 500 ppm of active ingredient; wheat plants, preventive spray; grading 12 days after contamination
Description: as §2
(§3) Wheat plants (“Scipion” variety), sown in starter cups on a 50/50 peat soil pozzolana substrate and grown at 22° C., are treated at the 1 leaf stage (10 cm height) by spraying with the active ingredient prepared as described above. Plants, used as controls, are treated with the mixture of acetone/tween/DMSO/water not containing the active material.
(§4) After 24 hours, the plants are contaminated by spraying the leaves with an aqueous suspension of Puccinia recondita spores (100 000 spores per mL). The spores are collected from an infected plant and are suspended in water containing 2.5 mL/L of Tween 80 at 10%. The contaminated wheat plants are incubated for 24 hours at 20° C. and at 100% relative humidity, and then for 10 days at 20° C. and at 70-80% relative humidity.
as §1
Under these conditions, good (at least 70%) to total protection is observed at a dose of 500 ppm of active ingredient with the following compounds from table I: […]

[6] = system: Septoria tritici; assay: In vivo preventive test on Septoria tritici (wheat); details: 500 ppm of active ingredient; wheat plants, preventive spray; grading 24 days after contamination
Description: as §2, §3
After 24 hours, the plants are contaminated by spraying the leaves with an aqueous suspension of cryopreserved Septoria tritici spores (500 000 spores per mL). The contaminated wheat plants are incubated for 72 hours at 18° C. and at 100% relative humidity, and then for 21 days at 90% relative humidity.
Grading (% of efficacy) is carried out 24 days after the contamination, in comparison with the control plants.
Under these conditions, good (at least 70%) to total protection is observed at a dose of 500 ppm of active ingredient with the following compounds from table J: […]

[7] = system: Uromyces appendiculatus; assay: In vivo preventive test on Uromyces appendiculatus (bean rust); details: 500 ppm of active ingredient; bean plants, preventive spray; grading 11 days after contamination (table K1)
Description: as §2
as §4, with “of Uromyces appendiculatus” for “of Puccinia recondita”, “spores (150” for “spores (100”, “from” for “from an”, “infected plants” for “infected plant”, “contaminated bean” for “contaminated wheat”
Grading (% of efficacy) is carried out 11 days after the contamination, in comparison with the control plants.

Row | Structure (SMILES) | logP [1] | Efficacy [2] | Efficacy [3] | Efficacy [4] | Efficacy [5] | Efficacy [6] | Efficacy [7]
1 | Cn1nc(C(F)F)c(C(=O)N(Cc2c(C3=CCCC3)ccc(F)c2F)C2CC2)c1F [I.19] | 4.11 | 100% | 96% | 93% | 98% | 97% | 100%
2 | CC1CC=C(c2ccccc2C(C)N(C(=O)c2c(C(F)F)nn(C)c2F)C2CC2)CC1 (mixture of isomers) [I.45] | 5.03 | 100% | 98% | 97% | 81% | 100% | 75%
3 | Cn1nc(C(F)F)c(C(=O)N(Cc2c(C(F)(F)F)ccc(C3=CCCC3)c2F)C2CC2)c1F [I.7] | 4.81 | 100% | 80% | 86% | 81% | 97% | 98%
